ChEMBL document CHEMBL3885881, “DrugMatrix”

Species: Rattus norvegicus
Assay: DrugMatrix - Regimen: Daily Repeat
Type: toxicity, organism-based, Sprague-Dawley
Design: regimen Daily Repeat, gender Male, age 6-8 weeks
Conditions: in vivo, po, route oral GAVAGE, […]; for ABSOLUTE BASOPHIL / ABSOLUTE EOSINOPHIL / ABSOLUTE LYMPHOCYTE / ABSOLUTE MONOCYTE / ABSOLUTE SEGMENTED NEUTROPHIL / BASOPHIL / EOSINOPHIL / ERYTHROCYTE COUNT / HEMATOCRIT / HEMOGLOBIN / LEUKOCYTE COUNT / LYMPHOCYTE / MEAN CORPUSCULAR HEMOGLOBIN / MEAN CORPUSCULAR HEMOGLOBIN CONCENTRATION / MEAN CORPUSCULAR VOLUME / MONOCYTE / NEUTROPHIL / NUCLEATED RED BLOOD CELLS / PLATELET COUNT: tissue Blood; for ALANINE AMINOTRANSFERASE / ALBUMIN / ALKALINE PHOSPHATASE / ASPARTATE AMINOTRANSFERASE / BLOOD UREA NITROGEN / CARBON DIOXIDE / CHLORIDE / CHOLESTEROL / CREATINE PHOSPHOKINASE / CREATININE / GLUCOSE / LACTATE DEHYDROGENASE / LIPASE / PHOSPHORUS / POTASSIUM / SODIUM / TOTAL BILIRUBIN / TOTAL PROTEIN / URIC ACID: tissue Plasma
[1] = 0 mg/kg, 72 h, dose level Control, time 3 day
[2] = 0 mg/kg, 120 h, dose level Control, time 5 day
[3] = 10 mg/kg, 72 h, dose level Low, time 3 day

COCCOC(=O)C1=C(C)NC(C)=C(C(=O)OC(C)C)C1c1cccc([N+](=O)[O-])c1 (centres undefined) [NIMODIPINE]
ABSOLUTE BASOPHIL [1]: 0 CELLS/uL
ABSOLUTE EOSINOPHIL [1]: 0 CELLS/uL
ABSOLUTE LYMPHOCYTE [1]: 9244.83 CELLS/uL
ABSOLUTE MONOCYTE [1]: 102 CELLS/uL
ABSOLUTE SEGMENTED NEUTROPHIL [1]: 869.83 CELLS/uL
BASOPHIL [1]: 0%
EOSINOPHIL [1]: 0%
ERYTHROCYTE COUNT [1]: 5.43 x10E6/uL
HEMATOCRIT [1]: 34.03%
HEMOGLOBIN [1]: 13.27 G/DL
LEUKOCYTE COUNT [1]: 10.22 x10E3/uL
LYMPHOCYTE [1]: 90.33%
MEAN CORPUSCULAR HEMOGLOBIN [1]: 24.48 pg
MEAN CORPUSCULAR HEMOGLOBIN CONCENTRATION [1]: 39.03 G/DL
MEAN CORPUSCULAR VOLUME [1]: 62.75 fL
MONOCYTE [1]: 1%
NEUTROPHIL [1]: 8.67%
NUCLEATED RED BLOOD CELLS [1]: 0.17 /100WBC
PLATELET COUNT [1]: 989 x10E3/uL
ALANINE AMINOTRANSFERASE [1]: 77 u/L
ALBUMIN [1]: 3.97 G/DL
ALKALINE PHOSPHATASE [1]: 464.83 u/L
ASPARTATE AMINOTRANSFERASE [1]: 89.83 u/L
BLOOD UREA NITROGEN [1]: 12.17 mg/dL
CARBON DIOXIDE [1]: 34.17 mmol/L
CHLORIDE [1]: 98.33 MEQ/L
CHOLESTEROL [1]: 75.17 mg/dL
CREATINE PHOSPHOKINASE [1]: 367.67 u/L
CREATININE [1]: 0.16 mg/dL
GLUCOSE [1]: 142.67 mg/dL
LACTATE DEHYDROGENASE [1]: 139.33 u/L
LIPASE [1]: 9.5 u/L
PHOSPHORUS [1]: 10.85 mg/dL
POTASSIUM [1]: 6.38 MEQ/L
SODIUM [1]: 143.2 MEQ/L
TOTAL BILIRUBIN [1]: 0.2 mg/dL
TOTAL PROTEIN [1]: 5.77 G/DL
URIC ACID [1]: 0.7 mg/dL
ABSOLUTE BASOPHIL [2]: 0 CELLS/uL
ABSOLUTE EOSINOPHIL [2]: 0 CELLS/uL
ABSOLUTE LYMPHOCYTE [2]: 8295.33 CELLS/uL
ABSOLUTE MONOCYTE [2]: 84.67 CELLS/uL
ABSOLUTE SEGMENTED NEUTROPHIL [2]: 970 CELLS/uL
BASOPHIL [2]: 0%
EOSINOPHIL [2]: 0%
ERYTHROCYTE COUNT [2]: 5.74 x10E6/uL
HEMATOCRIT [2]: 36.22%
HEMOGLOBIN [2]: 13.85 G/DL
LEUKOCYTE COUNT [2]: 9.35 x10E3/uL
LYMPHOCYTE [2]: 88.67%
MEAN CORPUSCULAR HEMOGLOBIN [2]: 24.13 pg
MEAN CORPUSCULAR HEMOGLOBIN CONCENTRATION [2]: 38.25 G/DL
MEAN CORPUSCULAR VOLUME [2]: 63.08 fL
MONOCYTE [2]: 1%
NEUTROPHIL [2]: 10.33%
NUCLEATED RED BLOOD CELLS [2]: 0.17 /100WBC
PLATELET COUNT [2]: 883.83 x10E3/uL
ALANINE AMINOTRANSFERASE [2]: 64.5 u/L
ALBUMIN [2]: 4.12 G/DL
ALKALINE PHOSPHATASE [2]: 425.67 u/L
ASPARTATE AMINOTRANSFERASE [2]: 88.5 u/L
BLOOD UREA NITROGEN [2]: 14.17 mg/dL
CARBON DIOXIDE [2]: 30.5 mmol/L
CHLORIDE [2]: 100.33 MEQ/L
CHOLESTEROL [2]: 55.33 mg/dL
CREATINE PHOSPHOKINASE [2]: 287.17 u/L
CREATININE [2]: 0.2 mg/dL
GLUCOSE [2]: 162.83 mg/dL
LACTATE DEHYDROGENASE [2]: 111.33 u/L
LIPASE [2]: 10.5 u/L
PHOSPHORUS [2]: 10.32 mg/dL
POTASSIUM [2]: 5.13 MEQ/L
SODIUM [2]: 143.93 MEQ/L
TOTAL BILIRUBIN [2]: 0.17 mg/dL
TOTAL PROTEIN [2]: 5.9 G/DL
URIC ACID [2]: 0.77 mg/dL
ABSOLUTE BASOPHIL [3]: 0 CELLS/uL
ABSOLUTE EOSINOPHIL [3]: 0 CELLS/uL
ABSOLUTE LYMPHOCYTE [3]: 10257 CELLS/uL
ABSOLUTE MONOCYTE [3]: 34.33 CELLS/uL
ABSOLUTE SEGMENTED NEUTROPHIL [3]: 975.33 CELLS/uL
BASOPHIL [3]: 0%
EOSINOPHIL [3]: 0%
ERYTHROCYTE COUNT [3]: 5.25 x10E6/uL
HEMATOCRIT [3]: 33.27%
HEMOGLOBIN [3]: 13.03 G/DL
LEUKOCYTE COUNT [3]: 11.27 x10E3/uL
LYMPHOCYTE [3]: 92%
MEAN CORPUSCULAR HEMOGLOBIN [3]: 24.83 pg
MEAN CORPUSCULAR HEMOGLOBIN CONCENTRATION [3]: 39.2 G/DL
MEAN CORPUSCULAR VOLUME [3]: 63.37 fL
MONOCYTE [3]: 0.33%
NEUTROPHIL [3]: 7.67%
NUCLEATED RED BLOOD CELLS [3]: 0 /100WBC
PLATELET COUNT [3]: 1138 x10E3/uL
ALANINE AMINOTRANSFERASE [3]: 72.67 u/L
ALBUMIN [3]: 3.87 G/DL
ALKALINE PHOSPHATASE [3]: 445.67 u/L
ASPARTATE AMINOTRANSFERASE [3]: 88 u/L
BLOOD UREA NITROGEN [3]: 12 mg/dL
CARBON DIOXIDE [3]: 33 mmol/L
CHLORIDE [3]: 99 MEQ/L
CHOLESTEROL [3]: 69.67 mg/dL
CREATINE PHOSPHOKINASE [3]: 468 u/L
CREATININE [3]: 0.2 mg/dL
GLUCOSE [3]: 153.33 mg/dL
LACTATE DEHYDROGENASE [3]: 135.67 u/L
LIPASE [3]: 10.67 u/L
PHOSPHORUS [3]: 11.03 mg/dL
POTASSIUM [3]: 6.2 MEQ/L
SODIUM [3]: 144.23 MEQ/L
TOTAL BILIRUBIN [3]: 0.17 mg/dL
TOTAL PROTEIN [3]: 5.57 G/DL
URIC ACID [3]: 0.7 mg/dL
